The values that follow come from paper PMC10926604, “Discovery of a novel small molecule as CD47/SIRPα and PD-1/PD-L1 dual inhibitor for cancer immunotherapy” (Cell Communication and Signaling : CCS, 2024).

One series has as its target T1, human CD47/SIRPα (Homo sapiens, UniProt P78324).
T1 construct: purchased ACRO Biosystems SIA-H5251; host or cells: CHO-K1-hCD47 cells carry the partner (lentiviral transfection)
In words: Cell-based blocking assay, human CD47/SIRPα. Particulars: CHO-K1-hCD47 cells, SIRPα-Fc, flow cytometry; read-out: IC50 for blocking human CD47/SIRPα interaction. The procedure:
(§1) The CHO-K1 cell line with stable expression of CD47 and PD-1 was constructed previously by our group. SMC18 was serially diluted using PBS 7.2 (containing 1% DMSO) and incubated with 100 ng of SIRPα-Fc protein (human: SIA-H5251, mouse: SIA-M5258, ACRO Biosystems) and 50 ng of PD-L1-Fc protein (human: 10,084-H02H, mouse: 50,010-M02H, Sino Biological) on ice for 30 min. The mixture was then added to the corresponding CHO-K1-CD47 or CHO-K1-PD-1 cells and further incubated on ice for 30 min. Afterward, PE-conjugated anti-human IgG (Fc) antibody (A18272, eBioscience) was added. The mean fluorescence intensity (MFI) of the cells was detected using flow cytometry (BD FACSCalibur) and the blocking efficiency was calculated.

For the next series, the target named is T2, murine PD-1/PD-L1 (Mus musculus, UniProt Q9EP73).
T2 construct: purchased Sino Biological 50,010-M02H; host or cells: CHO-K1-mPD-1 cells carry the partner (lentiviral transfection)
T2 sequence (Q9EP73 19-238 limits assumed): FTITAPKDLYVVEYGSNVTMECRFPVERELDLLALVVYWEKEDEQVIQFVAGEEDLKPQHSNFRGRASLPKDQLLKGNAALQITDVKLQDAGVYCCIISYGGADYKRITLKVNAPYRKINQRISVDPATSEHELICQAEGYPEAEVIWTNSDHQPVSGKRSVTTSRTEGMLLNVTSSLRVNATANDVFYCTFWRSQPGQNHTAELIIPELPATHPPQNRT
In words: Cell-based blocking assay, murine PD-1/PD-L1. As to conditions: CHO-K1-mPD-1 cells, PD-L1-Fc, flow cytometry; read-out: IC50 for blocking murine PD-1/PD-L1 interaction. The procedure:
as §1

Series [1] has as its system GFP+ MC38 cells phagocytosed by BMDMs. In words: Phagocytosis assay, BMDMs with GFP+ MC38 cells. In kind it is cell-based, mouse. Particulars: 50 μM. The procedure: Bone marrow-derived macrophage cells (BMDMs) from C57BL/6N mice were isolated and induced with 20 ng/mL of mouse granulocyte–macrophage colony-stimulating factor (GM-CSF, 315–03, Peprotech) for 7 days, with regular medium changes and cytokine replenishment during cell induction. The cells were then harvested for subsequent experiments. Subsequently, the cells were treated with SMC18 at a concentration of 50 μΜ. The anti-CD47 antibody (clone miap301, 16–0471-81, Invitrogen) was employed as a positive control with 20 µg/mL. Phagocytosis was measured by the co-culture of macrophages with green fluorescent protein (GFP^+) tumor cells (GFP^+ MC38 and GFP^+ B16-OVA cells) at a ratio of 1:4 in serum-free medium at 37 °C for 4 h. The cells were harvested and identified by flow cytometry using anti-F4/80 antibody (BM8, 17–4801-82, eBioscience). The phagocytosis rate was calculated as the percentage F4/80^+GFP^+ cells relative to the total number of total F4/80^+ cells. For confocal microscopy detection, BMDMs were labelled with DiR dye (R-22070, Beyotime) at a final concentration of 200 μM, followed by a 30-min staining period. After washing with PBS three times, the cells were cultured with DMEM medium devoid of serum for 2 h. Subsequently, MC38-EGFP cells were seeded onto BMDMs at a density of 4 × 10^6 cells per well. […]

The nature of series [2]: Mouse blood indicators and H&E staining of major organs. In kind it is in vivo. Particulars: for ALT: NS 45.13 ± 1.55; for AST: NS 187.4 ± 25.5. The procedure: Peripheral blood samples were collected from mice that received intravenous injections of SMC18 (2 or 6 mg/kg) for 2 weeks. The samples were analyzed for whole blood hematological test to detect the indicators of anemia and liver injury. For H&E staining analysis, tumors and the major organs (heart, liver, spleen, lung and kidney) were harvested from tumor-bearing mice. The tissues were then fixed with 4.0% paraformaldehyde for paraffin embedding and processed by H&E staining for histological evaluation. Immunostaining of tumor tissue sections was conducted utilizing anti-mouse CD8α andtibody (53–6.7, eBioscience).

T1 sequence (P78324 31-370 limits assumed): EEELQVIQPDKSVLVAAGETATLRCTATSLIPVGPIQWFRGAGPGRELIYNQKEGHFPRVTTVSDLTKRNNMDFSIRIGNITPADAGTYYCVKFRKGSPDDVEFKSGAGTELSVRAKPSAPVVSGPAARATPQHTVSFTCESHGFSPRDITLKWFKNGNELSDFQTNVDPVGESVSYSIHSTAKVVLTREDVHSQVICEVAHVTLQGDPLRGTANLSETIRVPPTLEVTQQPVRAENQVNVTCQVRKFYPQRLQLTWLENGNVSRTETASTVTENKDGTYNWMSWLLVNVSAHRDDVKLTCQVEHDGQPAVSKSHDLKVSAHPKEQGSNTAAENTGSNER

For the compound `Cc1cc(C)cc(NS(=O)(=O)c2ccc3[nH]cc(C(=O)NCCc4ccccc4)c(=O)c3c2)c1` [SMC18], the IC50 on human CD47/SIRPα was 17.8 ± 8.2 µM. Moreover, at murine PD-1/PD-L1, the IC50 turned out to be 71.3 ± 20 µM. Also, the “phagocytosis of MC38 by BMDMs (flow cytometry)” value in series [1] (4 h) is “significantly increased”. Besides, the “macrophage phagocytosis of MC38 cells (confocal)” value in series [1] (DiR-labelled BMDMs, MC38-EGFP, vs control group) is given as “significantly enhanced”. In series [2] (2 mg/kg daily for 14 days), the ALT is on record as 56.57 ± 13.3 U/L and the AST amounted to 196.4 ± 20.7 U/L. In series [2] (6 mg/kg daily for 14 days), the ALT was found to be 46.83 ± 7.74 U/L and the AST worked out at 191.1 ± 23.3 U/L. In series [2] (2 or 6 mg/kg daily for 14 days), the “content of alanine aminotransferase (ALT) vs control group” value is given as “no significant differences”, the “content of aspartate aminotransferase (AST) vs control group” value was “no significant differences”, the “levels of erythrocytes (RBC count) vs control group” value is listed as “No significant differences” and the “levels of hemoglobin vs control group” value was “No significant differences”. Also, the “H&E staining of major organs (heart, liver, spleen, lung, kidney)” value in series [2] (tumor-bearing mice treated with SMC18) is recorded as “no significant damage”.
